target: T1, Phospholipase A2, membrane associated (Homo sapiens, UniProt P14555); assay: Inhibition of sPLA2-2A in HEK293 cell; type: cell-based
T1 sequence (P14555 whole entry): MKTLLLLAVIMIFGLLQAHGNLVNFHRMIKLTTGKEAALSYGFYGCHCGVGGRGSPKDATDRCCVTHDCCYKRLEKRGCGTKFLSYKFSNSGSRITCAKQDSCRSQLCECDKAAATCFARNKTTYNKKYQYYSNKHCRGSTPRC

Structure (SMILES)	IC50
O=c1cc(-c2ccc(-c3c(-c4ccccc4)oc4ccccc4c3=O)cc2)oc2ccccc12	23.2 µM
O=c1cc(-c2ccc(-c3ccc(-c4cc(=O)c5ccccc5o4)cc3)cc2)oc2ccccc12	3 µM
O=c1cc(-c2ccc(-c3ccc4oc(-c5ccccc5)cc(=O)c4c3)cc2)oc2ccccc12	63.9 µM
O=c1cc(-c2ccc(-c3cccc(-c4cc(=O)c5ccccc5o4)c3)cc2)oc2ccccc12	15.5 µM
O=c1cc(-c2cccc(-c3ccc4oc(-c5ccccc5)cc(=O)c4c3)c2)oc2ccccc12	19.9 µM
O=c1cc(-c2ccccc2)oc2ccc(-c3ccc4oc(-c5ccccc5)cc(=O)c4c3)cc12	69.3 µM
O=c1cc(-c2ccc(O)c(-c3c(O)cc(O)c4c(=O)cc(-c5ccc(O)cc5)oc34)c2)oc2cc(O)cc(O)c12 [AMENTOFLAVONE]	23.8 µM
O=c1cc(-c2ccc(Oc3cc(-c4cc(=O)c5c(O)cc(O)cc5o4)ccc3O)cc2)oc2cc(O)cc(O)c12 [OCHNAFLAVONE]	3.5 µM
